Test results as given in publication PMC6895048, “4,5-Disubstituted 1,2,3-triazoles: Effective Inhibition of Indoleamine 2,3-Dioxygenase 1 Enzyme Regulates T cell Activity and Mitigates Tumor Growth” (Scientific Reports, 2019).

Assays:
[1] = target: T1, purified human IDO1 enzyme (Homo sapiens, UniProt P14902); assay: IDO1 inhibition assay by the spectrometric method (pDMAB); assay type: biochemical; conditions: for IC50: purified human IDO1, spectrophotometric, mean of three independent assays, read-out: hIDO1 IC50
T1 construct: made in house; host or cells: Escherichia coli M15 (pQE30 vector with pREP4 plasmid)
T1 sequence (P14902 whole entry): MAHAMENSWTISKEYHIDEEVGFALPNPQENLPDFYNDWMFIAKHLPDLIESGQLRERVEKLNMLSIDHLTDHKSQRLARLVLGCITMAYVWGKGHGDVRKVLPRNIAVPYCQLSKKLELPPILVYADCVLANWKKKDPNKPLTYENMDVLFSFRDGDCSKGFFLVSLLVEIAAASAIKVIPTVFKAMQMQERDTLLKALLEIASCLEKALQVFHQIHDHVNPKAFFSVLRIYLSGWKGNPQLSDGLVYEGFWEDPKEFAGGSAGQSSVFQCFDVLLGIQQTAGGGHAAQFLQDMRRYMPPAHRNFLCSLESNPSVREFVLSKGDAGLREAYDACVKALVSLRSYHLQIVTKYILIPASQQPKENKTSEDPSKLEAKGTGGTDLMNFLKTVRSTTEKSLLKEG
Procedure: Both IDO1 and TDO inhibition assays were performed according to the reported procedures[26]–[30],[50],[51]. […] In the assay system, the minimum and maximum amount of DMSO was 0.02% and 2%, respectively. […] The concentration of the inhibitors was varied from 100 µM to 32 nM by serial dilution technique. Then, the reaction was quenched with 100 µL of 30% (w/v) trichloroacetic acid and was incubated for further 15 minutes at 65 °C. After that, 2% (w/v) pDMAB was used to quantify the amount of kynurenine formation. The absorbance of the reaction mixture was recorded by UV-Vis spectrophotometer at 480 nm.

[2] = target: T2, purified human TDO enzyme (Homo sapiens, UniProt P48775); assay: TDO inhibition assay by the spectrometric method; assay type: biochemical; conditions: spectrophotometric
T2 construct: 6xHis (N); made in house; host or cells: Escherichia coli BL21 (DE3) (pET 28a vector)
T2 sequence (P48775 whole entry): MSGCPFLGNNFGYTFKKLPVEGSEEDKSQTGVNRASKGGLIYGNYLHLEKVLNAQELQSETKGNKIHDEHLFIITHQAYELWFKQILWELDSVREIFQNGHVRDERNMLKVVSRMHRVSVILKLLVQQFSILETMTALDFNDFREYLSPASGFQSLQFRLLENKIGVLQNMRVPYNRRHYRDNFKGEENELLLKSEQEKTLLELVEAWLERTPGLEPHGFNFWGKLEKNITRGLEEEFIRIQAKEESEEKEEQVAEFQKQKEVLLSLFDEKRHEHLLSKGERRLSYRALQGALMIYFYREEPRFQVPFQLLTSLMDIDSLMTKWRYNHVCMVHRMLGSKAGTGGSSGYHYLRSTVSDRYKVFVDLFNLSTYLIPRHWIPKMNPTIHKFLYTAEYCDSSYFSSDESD
Procedure: Both IDO1 and TDO inhibition assays were performed according to the reported procedures[26]–[30],[50],[51]. The solubility of the compounds in water was either moderate or poor. […] In the assay system, the minimum and maximum amount of DMSO was 0.02% and 2%, respectively. The standard reaction mixture (500 μL) containing KPB (100 mM, pH 6.5 for IDO1 enzyme and 50 mM, pH 8.0 for TDO enzyme), sodium ascorbate (20 mM), methylene blue (10 µM), catalase (240 nM, from bovine liver), L-Trp (150 µM), purified enzyme (40 nM for IDO1 and 25 nM for TDO), DMSO (0.05%, v/v), Triton-X 100 (0.01%, v/v) and inhibitors was incubated at 37 °C for 1 hour. The concentration of the inhibitors was varied from 100 µM to 32 nM by serial dilution technique. Then, the reaction was quenched with 100 µL of 30% (w/v) trichloroacetic acid and was incubated for further 15 minutes at 65 °C. After that, 2% (w/v) pDMAB was used to quantify the amount of kynurenine formation. The absorbance of the reaction mixture was recorded by UV-Vis spectrophotometer at 480 nm. The Km = 59.76 µM and Kcat = 6.18 sec^−1.

[3] = target: T3, TDO enzyme (Homo sapiens, UniProt P48775); assay: HPLC based TDO inhibition assay; assay type: biochemical
T3 construct: 6xHis (N); made in house; host or cells: Escherichia coli BL21 (DE3) (pET 28a vector)
T3 sequence (P48775 whole entry): as above
Procedure: (§1) HPLC based IDO1, and TDO inhibition assays were performed according to the earlier reported procedure[19],[27]–[30]. The reaction mixture (250 µL) contained KPB (100 mM, pH 6.5 for IDO1 and 50 mM, pH 8.0 for TDO), sodium ascorbate (20 mM), methylene blue (10 µM), catalase (240 nM, from bovine liver, Sigma), L-Trp (150 µM), purified enzyme (40 nM for IDO1 and 25 nM for TDO), DMSO (0.05%, v/v), Triton-X 100 (0.01%, v/v) and inhibitors. The concentration of the compound was varied from 100 µM to 32 nM by serial dilution. The mixture was incubated at 37 °C for 1 hour in the absence and presence of the synthesized compounds. The reaction was then quenched using 50 µL of 30% (w/v) trichloroacetic acid and incubated at 65 °C for additional 15 minutes to allow complete hydrolysis of N-formylkynurenine to kynurenine. After that, the mixture was centrifuged at 10,000 rpm for 10 minutes, and 100 µL of clear solution was transferred to another tube for HPLC analysis. Then, 20 µL of the reaction mixture was then injected through Ascentis® express C18, 2.7 µm HPLC column with a flow rate of 0.5 mL/minute of the mobile phase containing 50% sodium citrate buffer (40 mM, pH 2.25) and 50% methanol (v/v) with 400 µM SDS. The area under the curve at 365 nm chromatogram corresponding to the kynurenine formation was recorded, and % of inhibition was calculated using standard curve prepared with pure kynurenine (from Sigma) under similar experimental conditions.

[4] = target: T4, IDO1 (Homo sapiens, UniProt P14902); assay: Kynurenine assay by HPLC analysis, IDO1; assay type: biochemical; design: made in house; host or cells: Escherichia coli M15 (pQE30 vector with pREP4 plasmid); conditions: for IC50: HPLC based IDO1 inhibition assay; for % Of inhibition for IDO1 enzyme / inhibition at 0.032 µM / inhibition at 0.16 µM / inhibition at 0.8 µM / inhibition at 4 µM / inhibition at 20 µM / inhibition at 100 µM: HPLC
T4 sequence (P14902 whole entry): as the sequence (P14902 whole entry) above
Procedure: as §1

[5] = target: T4, IDO1; assay: Cellular IDO1 activity assay in IFN-γ induced MDA-MB-231 cells; assay type: cell-based; design: induce the expression of the native IDO1 enzyme from its mRNA in the MDA-MB-231 cells; endogenous in cells; host or cells: MDA-MB-231 cells induced with human IFN-γ (50 ng/mL); conditions: IDO1 expression induced by human IFN-γ (50 ng/mL); mean of three
Procedure: The cellular enzyme activity assay was performed according to the reported procedure with minor modifications[19],[27]–[30],[33],[54]. Briefly, MDA-MB-231 breast cancer cells were selected for this assay because of the presence of IDO1 mRNA in this cell line. First, cells were grown in DMEM/F12 complete media overnight. Then different concentration of human interferon-gamma (IFN-γ) (from 5–1000 ng/mL) was added to it and incubated for 48 hours. This treatment is reported to allow over-expression of IDO1 enzyme in MDA-MB-231 cells. […] Sterile cell-culture grade PBS was used to wash the cells by centrifugation technique. Then, the pellet was lysed in 10 mM HEPES buffer by passing through a sterile syringe. The lysate was used for standard IDO1 assay as mentioned earlier. The relative amount of N-formylkynurenine generated in the presence of the different concentration of IFN-γ was used to optimize the required concentration of IFN-γ for the IDO1 inhibition assay. […] Cells stimulated with IFN-γ alone were used as negative control, while cells stimulated with L-Trp without compound served as positive control. The cells were washed with sterile cell culture grade PBS and lysed in 10 mM HEPES buffer by sterile syringe. The lysate was used for standard IDO1 assay, as mentioned earlier, and the extent of IDO1 enzyme inhibition was determined for the selected compounds.

[6] = system: IDO1; conditions: cited from earlier work
[7] = system: IDO1; conditions: cited from earlier work; remark: listed apart in the source
[8] = cited from earlier work

SMILES	IC50 [1] [nM]	% of Enzyme inhibition (TDO) ([2]; 32 nM) [%]	% of Enzyme inhibition (TDO) ([2]; 160 nM) [%]	% of Enzyme inhibition (TDO) ([2]; 800 nM) [%]	% of Enzyme inhibition (TDO) ([2]; 4 µM) [%]	% of Enzyme inhibition (TDO) ([2]; 20 µM) [%]	% of Enzyme inhibition (TDO) ([2]; 100 µM) [%]	% Of inhibition for TDO enzyme ([3]; 32 nM) [%]	% Of inhibition for TDO enzyme ([3]; 160 nM) [%]	% Of inhibition for TDO enzyme ([3]; 800 nM) [%]	% Of inhibition for TDO enzyme ([3]; 4 µM) [%]	% Of inhibition for TDO enzyme ([3]; 20 µM) [%]	% Of inhibition for TDO enzyme ([3]; 100 µM) [%]	IC50 [4] [nM]	% Of inhibition for IDO1 enzyme ([4]; 32 nM) [%]	% Of inhibition for IDO1 enzyme ([4]; 160 nM) [%]	% Of inhibition for IDO1 enzyme ([4]; 800 nM) [%]	% Of inhibition for IDO1 enzyme ([4]; 4 µM) [%]	% Of inhibition for IDO1 enzyme ([4]; 20 µM) [%]	EC50 [5] [nM]	further results
NC(=O)c1n[nH]nc1-c1ccccc1 [Compound 3a, 5-phenyl-2H-1,2,3-triazole-4-carboxamide]	8541 ± 84	–	–	–	–	–	–	–	–	–	–	–	–	1190 ± 39	–	–	–	–	–	1300 ± 68	fold stronger IDO1 inhibitory activity than 1a ([1]; in comparison with lead compound 1a): 10 fold; inhibition at 0.032 µM ([2]; 32 nM): 5%; inhibition at 0.16 µM ([2]; 160 nM): 7%; inhibition at 0.8 µM ([2]; 800 nM): 19%; inhibition at 4 µM ([2]; 4 µM): 23%; inhibition at 20 µM ([2]; 20 µM): 29%; inhibition at 100 µM ([2]; 100 µM): 42%; inhibition at 0.032 µM ([3]; 32 nM): 3%; inhibition at 0.16 µM ([3]; 160 nM): 4%; inhibition at 0.8 µM ([3]; 800 nM): 17%; inhibition at 4 µM ([3]; 4 µM): 22%; inhibition at 20 µM ([3]; 20 µM): 25%; inhibition at 100 µM ([3]; 100 µM): 30%; inhibition at 0.032 µM ([4]; 32 nM): 11%; inhibition at 0.16 µM ([4]; 160 nM): 31%; inhibition at 0.8 µM ([4]; 800 nM): 36%; inhibition at 4 µM ([4]; 4 µM): 63%; inhibition at 20 µM ([4]; 20 µM): 79%; inhibition at 100 µM ([4]; 100 µM): 80%
O=C(O)c1n[nH]nc1-c1ccc(F)c(F)c1 [Compound 4a]	17400 ± 918	4	8	16	18	22	30	6	18	26	38	41	54	8944 ± 87	11	13	29	30	57	1230 ± 21	% Of inhibition for IDO1 enzyme ([4]; 100 µM): 65%
Oc1ccc(Cl)cc1-c1cnn[nH]1 [MMG-0358, 4-chloro-2-(1H-1,2,3-triazol-5-yl)phenol]	–	–	–	–	–	–	–	–	–	–	–	–	–	–	–	–	–	–	–	–	IDO1 inhibitory activities, enzymatic assay [6]: nanomolar-level; IDO1 inhibitory activities, cellular assay [7]: nanomolar-level; cytotoxicity [8]: low cytotoxicity
CCc1ccccc1Nc1cnn[nH]1 [N-(2-Ethylphenyl)-1H-1,2,3-triazol-5-amine]	–	–	–	–	–	–	–	–	–	–	–	–	–	–	–	–	–	–	–	–	cellular IDO1 inhibitory activities [7]: nanomolar-level

The next lines start with results.

IC50 [1] [nM]	% of Enzyme inhibition (TDO) ([2]; 32 nM) [%]	% of Enzyme inhibition (TDO) ([2]; 160 nM) [%]	% of Enzyme inhibition (TDO) ([2]; 800 nM) [%]	% of Enzyme inhibition (TDO) ([2]; 4 µM) [%]	% of Enzyme inhibition (TDO) ([2]; 20 µM) [%]	% of Enzyme inhibition (TDO) ([2]; 100 µM) [%]	% Of inhibition for TDO enzyme ([3]; 32 nM) [%]	% Of inhibition for TDO enzyme ([3]; 160 nM) [%]	% Of inhibition for TDO enzyme ([3]; 800 nM) [%]	% Of inhibition for TDO enzyme ([3]; 4 µM) [%]	% Of inhibition for TDO enzyme ([3]; 20 µM) [%]	% Of inhibition for TDO enzyme ([3]; 100 µM) [%]	IC50 [4] [nM]	% Of inhibition for IDO1 enzyme ([4]; 32 nM) [%]	% Of inhibition for IDO1 enzyme ([4]; 160 nM) [%]	% Of inhibition for IDO1 enzyme ([4]; 800 nM) [%]	% Of inhibition for IDO1 enzyme ([4]; 4 µM) [%]	% Of inhibition for IDO1 enzyme ([4]; 20 µM) [%]	EC50 [5] [nM]	SMILES	further results
163 ± 25	8	12	25	30	44	53	1	35	36	49	41	43	257 ± 9	24	31	52	65	77	160 ± 7	CCOC(=O)c1n[nH]nc1-c1ccc(Cl)c(Cl)c1 [Compound 2j]	% Of inhibition for IDO1 enzyme ([4]; 100 µM): 77%
69 ± 4	6	9	20	27	32	60	33	39	42	47	51	51	99 ± 24	39	60	70	88	89	53 ± 4	NC(=O)c1n[nH]nc1-c1ccc(Cl)c(Cl)c1 [Compound 3j]	% Of inhibition for IDO1 enzyme ([4]; 100 µM): 89%
93 ± 9	–	–	–	–	–	–	–	–	–	–	–	–	98 ± 7	–	–	–	–	–	83 ± 5	NS(=O)(=O)NCCNC(=O)c1n[nH]nc1-c1ccc(Cl)c(Cl)c1 [Compound 4l, 5-(3,4-dichlorophenyl)-N-(2-(sulfamoylamino)ethyl)-2H-1,2,3-triazole-4-carboxamide]	inhibition at 4 µM ([1]; 4 μM compound): 71 to 86%; inhibition at 100 µM ([1]; 100 μM compound): 82 to 93%; inhibition at 0.032 µM ([2]; 32 nM): 3%; inhibition at 0.16 µM ([2]; 160 nM): 10%; inhibition at 0.8 µM ([2]; 800 nM): 11%; inhibition at 4 µM ([2]; 4 µM): 19%; inhibition at 20 µM ([2]; 20 µM): 25%; inhibition at 100 µM ([2]; 100 µM): 26%; inhibition at 0.032 µM ([3]; 32 nM): 14%; inhibition at 0.16 µM ([3]; 160 nM): 15%; inhibition at 0.8 µM ([3]; 800 nM): 22%; inhibition at 4 µM ([3]; 4 µM): 29%; inhibition at 20 µM ([3]; 20 µM): 38%; inhibition at 100 µM ([3]; 100 µM): 55%; inhibition at 0.032 µM ([4]; 32 nM): 33%; inhibition at 0.16 µM ([4]; 160 nM): 57%; inhibition at 0.8 µM ([4]; 800 nM): 65%; inhibition at 4 µM ([4]; 4 µM): 88%; inhibition at 20 µM ([4]; 20 µM): 93%; inhibition at 100 µM ([4]; 100 µM): 94%
